System: PKA activity in BV-2 cells
Experiment: cAMP dependent protein kinase A (PKA) activity assay in BV-2 cells
Type: cell-based, murine
Settings: H89 at 5 μM and 10 μM
Protocol: PKA activity was determined using the PKA kinase activity assay kit (Assay designs, Ann Arbor, Mich.). Cells were harvested 3 minutes after stimulation, and ELISA was carried out according to the manufacturer's instructions. Kinase activity was calculated as (sample absorbance—blank absorbance)/μg protein and normalized to the average value of vehicle.
Downstream signaling events for EP4, a […] receptor, were investigated in LPS treated BV-2 cells (see FIG. 3). […] The increase in PKA activity from EP4 receptor signaling was blocked with the PKA inhibitor H89 at doses of 5 μM and 10 μM (FIG. 3B).

## O=S(=O)(NCCNC/C=C/c1ccc(Br)cc1)c1cccc2cnccc12 [H89]
  AE1-329-mediated increase in PKA activity: blocked

— patent US20120283293A1, “Methods of neuroprotection involving Prostaglandin E2 EP4 (PGE2 EP4) receptor activation” (The Board of Trustees of the Leland Stanford Junior …, priority 2011, published 2012)
